Data taken from US9539191B2, “Composition for cosmetic use suitable to produce a pigmentation effect on hair” (Giuliani S.P.A., priority 2013, dated 2017).

Columns and labels:
[1] = system: Tyrosinase; assay: Enzymatic assay of tyrosinase (L-tyrosine substrate, absorbance 280 nm); assay type: biochemical; details: compound 5 mM; for Increment in enzymatic activity (%): % enzymatic activity - 100; for Enzymatic activity (%): compared to activity of the enzyme without active compounds (100%)
Experimental: The following compounds with formulae (II), (III), (IV) and (V) were tested as defined above, all in a concentration of 5 mM:
Tyrosinase is a membrane glycoprotein that is expressed in melanosomes, specialised organelles in the endocytic pathway through which the synthesis and assembly of melanin takes place. The synthesis of melanin from tyrosine takes place in pigment-producing cells, namely melanocytes. Melanin produced in melanosomes is transferred to keratinocytes through said processes. Melanin is a polymer that absorbs light within a broad spectrum of wavelengths, and protects keratinocytes from the harmful effects of UV radiations. A peroxidase is involved in the first phase of the reaction, which converts the amino acid into […] alanine or DOPA. The enzyme tyrosinase is involved in the subsequent phase of the biosynthesis pathway that produces dopaquinone. Melanin is synthesised starting from precursors of tyrosine and DOPA, through the enzyme tyrosinase, which presents both […] and oxidase functions. Tyrosine is converted into L-DOPA (dihydroxyphenylalanine) and, then, into dopaquinone, which is red, until the brown melanin polymer is obtained. In a first branch of the pathway dopaquinone is converted into black polymeric melanins, while the reaction with cysteine forms a series of polymers that are similar among them and are called red polymeric melanins.
REAGENT A (potassium phosphate buffer, 50 mM, pH 6.5, 25° C.):
REGENT B (L-tyrosine solution 1 mM):
REAGENT C (tyrosinase solution):
Prepare a solution A+B as described below:
10 mL of Reagent A (potassium phosphate buffer 50 mM)
10 mL of Reagent B (L-tyrosine 1 mM)
Vortex the solution and, if necessary, restore pH 6.5, at 25° C. with HCl 1M or NaOH.
Prepare the solutions with the various concentrations of the compounds to be tested, and preserve at 4° C. until use.
Defrost the tyrosinase solution and keep it on ice in the dark until use.
Mix, at ambient temperature, the solution of potassium phosphate buffer (50 mM, pH 6.5), the above solution A+B and the solutions that include the compounds of the formula (I) to be tested.
Use the following parameters:
Measuring mode: absorbance;
Execution settings: 700 seconds.
First read the enzymatic activity of tyrosinase when there is only L-tyrosine to verify the actual enzyme/mL units and have a basic reference to later assess the effects of the compound examined on enzyme activity:
1 replicates for the blank test (one blank test for each concentration to be tested);
2 replicates for the test (one test for each concentration to be tested).
Prepare the mixtures in separate cuvettes, as described below:
Test the examined compounds with formulae (II), (III), (IV) and (V), as specified below: […]
Calculating the Inhibition or Induction of Enzymatic Activity
[formula] df=dilution factor (30 because 0.1 mL/3 mL tot) 0.001=change of A280 nm/min per unit of L-tyrosine at pH 6.5, 25° C. in a 3 mL reaction mixture; 0.1=volume (mL) of enzyme used Unit/mg solid=unit/mL of enzyme: mg solid/mL of enzyme Unit/mg protein=unit/mL of enzyme: mg protein/mL of enzyme Definition of unit=increment of A280 nm/min equal to 0.001, at 25° C., pH 6.5 in a 3 mL reaction volume containing L-tyrosine.
The percentage of enzymatic activity was calculated for each tested compound, compared to the activity of the enzyme (100% enzymatic activity) failing the presence of active compounds.
The increment percentage of enzymatic activity was later calculated (% enzymatic activity−100).

[2] = system: Hair follicles (HF) in anagen phase VI with normal pigmentation; assay: Hair pigmentation in organ-cultured human hair follicles (quantitative Masson-Fontana melanin stain); assay type: cell-based
Experimental: The skin of the normal human scalp was taken from a person who was submitted to routine facial lifting surgery, after obtaining their informed consent. All experiments were performed in compliance with the Helsinki principles, with the Ethics Committee approval.
N^1-methyl-spermidine in the invention or the carrier as such (control group) were administered once every time the culture medium was changed, namely every 48 hours. The control compound administered was spermidine at a concentration of 0.5 μM.
The Masson-Fontana stain was administered to ensure histochemical visibility of melanin in frozen sections. Melanin was stained as brown granules and the degree of pigmentation was assessed with the quantitative Masson-Fontana technique. (Ito N., Ito T., Kromminga A., Bettermann A., Takigawa M., Kees F., Straub R. H., and Paus R. (2005): Human hair follicles display a functional equivalent of the hypothalamic-pituitary-adrenal axis and synthesise cortisol. (FASEB J 19, 1332-4)
This method is a highly sensitive and reliable indicator of variations in melanin synthesis, as proven by assays of enzymatic activity, and the expression of standard tyrosinase. […]
The intensity of the stain was analysed in a defined reference region of the hair follicle's pigmentation unit using the software ImageJ (National Institute of Health).

## CNCCCCNCCCN [Methyl-spermidine, N-(3-aminopropyl)-N^1-methyl-1,4-butandiammine]
[1]
  Increment in enzymatic activity (%): 5.16%
  Enzymatic activity (%): 105.16%
[2]; 0.5 μM vs spermidine 0.5 μM, FIG. 1
  absolute pigmentation intensity in hair follicles compared to spermidine (Spd): higher increase in absolute pigmentation intensity
[2]; 0.5 and 1.5 μM, administered every 48 hours, Masson-Fontana stain, FIGS. 1 and 2
  melanin produced / (absolute) intensity of pigmentation in hair follicles compared to carrier: increase in melanin produced

## CCNCCCCNCCCN [Ethyl-spermidine, N-(3-aminopropyl)-N^1-ethyl-1,4-butandiammine]
[1]
  Increment in enzymatic activity (%): 21.50%
  Enzymatic activity (%): 121.50%

## CCCNCCCCNCCCN [Propyl-spermidine, N-(3-aminopropyl)-N^1-propyl-1,4-butandiammine]
[1]
  Increment in enzymatic activity (%): 31.29%
  Enzymatic activity (%): 131.29%

## NCCCNCCCCNC1CCCCC1 [Cyclohexyl-spermidine, N-(3-aminopropyl)-N^1-cyclohexyl-1,4-butandiammine]
[1]
  Increment in enzymatic activity (%): 35.31%
  Enzymatic activity (%): 135.31%
